Reference: ChEMBL document CHEMBL4610062, “Cytotoxic and non-cytotoxic cardiac glycosides isolated from the combined flowers, leaves, and twigs of Streblus asper” (Bioorg Med Chem, 2020)

Tests used:
HT-29 = assay: Cytotoxicity against human HT-29 cells assessed as inhibition of cell viability incubated for 72 hrs by MTS assay; format: functional, cell-based; conditions: HT-29, 72 h
OVCAR-3 = assay: Cytotoxicity against human OVCAR3 cells assessed as inhibition of cell viability incubated for 72 hrs by MTS assay; format: functional, cell-based; conditions: OVCAR-3, 72 h
[1] = Inhibition of Sodium/potassium-transporting ATPase in porcine cerebral cortex using ATP as substrate incubated for 15 mins by ADP-Glo Max Assay; design: species or system Sus scrofa
[2] = Cytotoxicity against human MDA-MB-435 cells assessed as inhibition of cell viability incubated for 72 hrs by MTS assay

| Structure (SMILES) | IC50 (HT-29) | IC50 (OVCAR-3) | IC50 [1] | IC50 [2] |
| --- | --- | --- | --- | --- |
| CO[C@H]1[C@H](O[C@H]2CC[C@]3(C=O)[C@H]4CC[C@]5(C)[C@](O)(C6=CC(=O)OC6)CC[C@]5(O)[C@@H]4CC[C@]3(O)C2)O[C@H](C)[C@H](O)[C@@H]1OC | > 20 µM | > 20 µM | 232 µM | > 20 µM |
| CO[C@H]1[C@H](O[C@H]2CC[C@]3(C=O)[C@H]4CC[C@]5(C)[C@@H]6CC[C@]5(O[C@H]5OC(=O)C[C@H]56)[C@@H]4CC[C@]3(O)C2)O[C@H](C)[C@H](O)[C@@H]1OC | > 20 µM | > 20 µM |  | > 20 µM |
| C[C@H]1O[C@@H](O[C@H]2[C@@H](O)C[C@H](O[C@H]3[C@@H](O)C[C@H](O[C@H]4CC[C@@]5(C)[C@H](CC[C@@H]6[C@@H]5CC[C@]5(C)[C@@H](C7=CC(=O)OC7)CC[C@]65O)C4)O[C@@H]3C)O[C@@H]2C)C[C@H](O)[C@@H]1O [DIGITOXIN] |  |  | 0.127 µM |  |
| CC(=O)O[C@H]1C(=O)[C@@]2(C)[C@H]([C@H](OC(=O)c3ccccc3)[C@]3(O)C[C@H](OC(=O)[C@H](O)[C@@H](NC(=O)c4ccccc4)c4ccccc4)C(C)=C1C3(C)C)[C@]1(OC(C)=O)CO[C@@H]1C[C@@H]2O [PACLITAXEL] |  |  |  | 0.0015 µM |
